Laboratory results: article PMC8684484, “The assessment of Pseudomonas aeruginosa lectin LecA binding characteristics of divalent galactosides using multiple techniques” (Glycobiology, 2021)

Experiments:
LecA [1] = target: T1, LecA (Pseudomonas aeruginosa, UniProt Q05097); test: Affinity capillary electrophoresis (ACE), direct binding, μeff shift of LecA with carbohydrate in BGE
T1 construct: purchased Sigma–Aldrich (Steinheim, Germany)
Description: For affinity studies, two different LecA ligands were used. The first was the carboxylated galactoside (1). This was used as the reference monovalent ligand and its negatively charged carboxylate increases the chances of a protein shift in CE where charges are the important mobility determinant. Furthermore we used the bivalent carbohydrate (2), previously optimized for bivalent binding ([Yu et al. 2019b]). These glycoligands were added to the optimized CE background electrolyte (BGE) and the protein LecA was injected. For KD determination the BGE containing increasing concentrations of carbohydrate 1 or carbohydrate 2 were prepared and used for the analysis of LecA (10 μM). […] For each carbohydrate and each concentration, the difference of the measured μeff of LecA with the μeff acquired without carbohydrate in the BGE, was determined. […]
CE analyses were carried out using an Agilent 7100 instrument (Agilent technologies, USA). […] Ultraviolet detection was performed from 190 nm to 280 nm, but data recorded at 214 nm were used in this study. […]
BGEs containing increasing concentrations of compound 1 and/or compound 2 were prepared at the pH for which μeff shifts were observed and used for KD determination. For each carbohydrate and each studied concentration, the difference of the measured μeff of LecA with the μeff obtained without carbohydrate was determined. […]

[2] = target: T2, Maclura pomifera Lectin (MPL) (Maclura pomifera, UniProt P18674); test: ACE selectivity experiment with MPL as binding competitor; details: mixture of LecA and MPL; 1 mM of 1 or 20 μM of 2 in BGE
T2 construct: purchased Vector Laboratories (San Francisco, CA, USA)
Description: A mixture of LecA and MPL was analyzed by ACE, and affinity studies were carried out by adding the carbohydrates 1 and 2 to the BGE.
CE analyses were carried out using an Agilent 7100 instrument (Agilent technologies, USA). Bare fused-silica capillaries, with a 100 μm internal diameter, 365 μm outer diameter and a 50 cm total length, were from Biotaq (Gaithersburg, MD, USA). The detection window of the capillary was created at 10 cm from the outlet of the capillary. Hydrodynamic injections were performed at 17 mbar for 4 s, by injecting LecA or MPL (10 μM). The separation voltage was set at −10 kV and the caplillary temperature was maintained at 25°C during analysis. Ultraviolet detection was performed from 190 nm to 280 nm, but data recorded at 214 nm were used in this study. The BGE for the analysis of the lectins was potassium phosphate prepared by dissolving the appropriate amount of compounds in water and adjusting the pH with a sodium hydroxide solution. Capillaries were coated with Ultra Trol LN. Stable currents of 45 μA were observed during the affinity measurements with optimum buffer conditions (25 mM KH2PO4 at pH 7).
In order to study the affinity of LecA toward inhibitors, LecA was injected and carbohydrate inhibitors were added to the BGEs. BGEs were prepared containing 1 mM of compound 1, 20 μM of compound 2, or without carbohydrate. […]

LecA [3] = target: T1, LecA; test: Native ESI-MS occupancy of the LecA tetramer; type: binding; details: ligand 600 μM, LecA 10 μM; estimated from MS intensities
Description: At the high concentration of monovalent compound 1 (600 μM) incubated with LecA (10 μM), a varying number of binding pockets of the tetrameric lectin were occupied by the monovalent ligand indicated by four different peaks in close proximity (Figure 8b). At these concentrations, an estimated number of copies of LecA of 8% remains fully unoccupied, 18% has one pocket occupied, 26% has two pockets occupied, 27% has three pockets occupied and 21% is fully occupied. We used the intensity values as determined by mass spectrometry as a proxy of their abundances in solution to calculate the occupancy values, for which previously it was shown that there is good correlation ([Seo et al. 2016]).
At a low (substoichiometric) concentration of divalent compound 2 (2 μM), 3 m/z peaks were observed that correspond to unbound LecA (estimated 6%), LecA bound to one compound 2 (estimated 39%) and LecA bound to two of the divalent ligand 2 (estimated 55%) (Figure 8c). […] As no peaks were detected corresponding to a single or triple binding pockets of the tetrametric lectin, excellent support is provided for the effective divalent binding of our molecule at reasonable concentrations.
To investigate the interaction between LecA and compounds 1 and 2, we incubated these compounds with LecA and transferred the produced complex into a 150 mM ammonium acetate solution (pH 7.5) by applying 10 μM of the protein ligand complex in a ratio of 1:1 on a pre-equilibrated 6-kDa Micro Bio-Spin column (Bio-Rad). The protein was eluted by centrifugation at 1,000 × g and 4°C. MS measurements were performed in positive ion mode using an Electrospray Ionization Time-of-Flight instrument (LC-T; Micromass, Manchester, UK) equipped with a Z-spray nanoelectrospray ionization source. Samples were sprayed from in-house prepared borosilicate glass capillaries (Kwik-Fil; World Precision Instruments, Sarasota, FL) prepared on a P-97 puller (Sutter Instruments, Novato, CA, USA) and coated with a thin layer of gold by using an Edwards Scan coat six Pirani 501 sputter coater (Edwards Laboratories, Milpitas, CA, USA). Instrument settings were adjusted for optimal transmission of high mass ions. A capillary voltage of 1300 V was used, in combination with a sampling cone voltage of 60 V. The source backing pressure was elevated to approximately 6.7 mbar in order to promote collisional cooling. All TOF data were mass calibrated by using an aqueous solution of cesium iodide (25 mg·mL^−1) and interpreted manually using MassLynx software (Waters, version 4.1).

LecA [4] = target: T1, LecA; test: Fluorescence-based thermal shift assay (TSA), Sypro orange; type: binding; details: ligand 500 μM; for Tm of LecA: no ligand 71.7
Description: As ligand binding is known to shift the melting point of proteins in a ligand concentration dependent manner, we performed the TSA experiments with two different concentrations of LecA (0.5 and 1 mg/mL) containing the fluorescent dye sypro orange. […] Therefore, we selected a fixed concentration of 1 mg/mL for the subsequent experiments. […] Divalent 2 stabilizes LecA by more than 11°C at a concentration of 20 μM (Figure 7).
TSA was performed using a standard real-time PCR instrument. To monitor protein unfolding, the fluorescent dye Sypro orange was used. Sypro orange is an environmentally sensitive dye (Thermo Fischer 5000x in DMSO). The unfolding process exposes the hydrophobic region of proteins and results in a large increase in fluorescence, which is used to monitor the protein-unfolding transition ([Lo et al. 2004]). The TSA was performed with a BioRad CFX96 real-time PCR machine, and analysis for binding induced shifts in thermal transition was performed with Bio-Rad CFX Manager 3.1 Software provided by the manufacturer (BioRad, Hercules, CA, USA).
Galactose based inhibitors specifically bind to the binding pocket of the lectin. Ligands could stabilize LecA (0.5 and 1 mg/mL) upon binding and therefore the protein Tm might increase. The shift in Tm with an addition of the ligand (ΔTm) serves as a qualitative measure of protein stability and allows to determine whether a protein–ligand binding event occurs. We here show the effect of different carbohydrates on the thermal denaturation of LecA. Sypro orange conc, used: 320× from commercial 5000×).

JIL (Jacalin lectin) = target: T3, JIL (Jacalin lectin) (Artocarpus integer, UniProt P18670); test: Bio-layer interferometry (BLI), biotinylated ligand on streptavidin sensor; type: binding, Jackfruits; details: immobilized ligand
T3 construct: purchased Sigma–Aldrich (Steinheim, Germany)
Description: (§1) The biotinylated galactoside 3 (Figure 5) was immobilized on a streptavidin coated sensor. […] This is likely due to the well-known low affinity of monovalent ligands for most lectins even though the presentation of the ligand on the chip was also multivalent, but apparently not matching the distances between binding sites. Next, the binding properties of the divalent biotinylated 4 with the mentioned lectins were evaluated. […] Indeed, during the dissociation step, the signal only partially decreases down to the baseline and this lack of full dissociation indicates high affinity. Using this setup, kinetic parameters of the interaction were determined for the divalent galactoside to evaluate whether the divalent binding mode of this ligand influences the lectin–ligand kinetics. By fitting the sensorgrams with a global model ([…]), association (ka or kon) and dissociation (kd or koff) constants were determined and the KD was calculated from the ratio of kd over the ka while the residence time (τ) was derived from 1/kd. […] The same was true for compound 4 and lectins MPL and JIL.
BLI measurements were carried out using an Octet RED 384 instrument (ForteBio). Biosensors were transferred into fresh assay buffer for 180 s to collect a baseline read. […] The KD derived from kinetic fitting was calculated as koff/kon.

LecA [5] = target: T1, LecA; test: as above; type: binding; details: immobilized ligand
Description: as §1
(§2) BLI measurements were carried out using an Octet RED 384 instrument (ForteBio). Biosensors were transferred into fresh assay buffer for 180 s to collect a baseline read. Compound 3 and compound 4 were immobilized on streptavidin (SA)-functionalized biosensors to maximum levels by incubation for 900 s at 1 μM ([Guo et al. 2018]). For each set of biosensors, an 180 s baseline in buffer alone was acquired followed by an 1800 s association step and an 1800 s dissociation step. All experiments were carried out using PBS (10 mM phosphate, 150 mM NaCl, pH 7.4) as the assay buffer at 298 K. Data were processed and analyzed and KD values were determined using the global fitting procedures as implemented in Octet® system Data Analysis Software 9.0.0.48 (Pall ForteBio LLC, Menlo Park, CA, USA). Kinetic responses were fitted to a 1-site binding model to obtain values for association (kon) and dissociation (koff) rate constants. The KD derived from kinetic fitting was calculated as koff/kon.

MPL = target: T4, MPL (Maclura pomifera, UniProt P18674); test: as above; type: binding; details: immobilized ligand
T4 construct: purchased Vector Laboratories (San Francisco, CA, USA)
Description: as §1, §2

T1 sequence (Q05097 2-122): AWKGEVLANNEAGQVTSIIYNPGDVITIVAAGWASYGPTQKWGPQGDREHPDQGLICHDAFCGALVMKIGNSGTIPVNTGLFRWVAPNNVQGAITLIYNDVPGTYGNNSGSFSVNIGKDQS
T4 sequence (P18674 whole entry): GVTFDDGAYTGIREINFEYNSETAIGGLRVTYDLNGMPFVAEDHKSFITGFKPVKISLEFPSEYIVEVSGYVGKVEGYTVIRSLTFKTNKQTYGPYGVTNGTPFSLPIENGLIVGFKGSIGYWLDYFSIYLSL
T4 sequence (P18676 whole entry partner): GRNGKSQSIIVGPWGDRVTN
T3 sequence (P18670 whole entry): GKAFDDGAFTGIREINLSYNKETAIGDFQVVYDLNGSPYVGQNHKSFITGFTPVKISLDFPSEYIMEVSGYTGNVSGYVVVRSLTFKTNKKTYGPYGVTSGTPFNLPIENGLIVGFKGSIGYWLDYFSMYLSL
T3 sequence (P18673 whole entry, further chain): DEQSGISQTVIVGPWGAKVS
T2 sequence (P18674 whole entry): as the sequence (P18674 whole entry) above

Row | SMILES | Kd (LecA [1]) [µM] | μeff shift of LecA with carbohydrate in BGE (LecA [1]; mixture of LecA and MPL, 1 mM of 1 or 20 μM of 2 in BGE) | μeff shift of MPL with carbohydrate in BGE [2] | LecA fully occupied (LecA [3]) [%] | LecA fully unoccupied (LecA [3]) [%] | LecA with one pocket occupied (LecA [3]) [%] | LecA with three pockets occupied (LecA [3]) [%] | LecA with two pockets occupied (LecA [3]) [%] | Tm of LecA (LecA [4]) [°C] | BLI signal (JIL (Jacalin lectin); JIL at 1 μM) | BLI association and dissociation (JIL (Jacalin lectin); JIL up to 10 μM) | BLI signal (LecA [5]; LecA at 1 μM) | BLI association and dissociation (LecA [5]; LecA up to 10 μM) | BLI signal (MPL; MPL at 1 μM) | BLI association and dissociation (MPL; MPL up to 10 μM) | stabilization of LecA (ΔTm) (LecA [4]; LecA 1 mg/mL)
1 | O=C(O)CO[C@@H]1O[C@H](CO)[C@H](O)[C@H](O)[C@H]1O [Compound 1] | 27 | sizeable shift | sizeable shift | 21 | 8 | 18 | 27 | 26 | 74.0 | – | – | – | – | – | – | –
2 | O=C(CCCC[C@@H]1SC[C@@H]2NC(=O)N[C@@H]21)NCCCCCC(=O)NCCCO[C@@H]1O[C@H](CO)[C@H](O)[C@H](O)[C@H]1O [Compound 3] | – | – | – | – | – | – | – | – | – | no detectable signal | no significant association and dissociation phenomena | no detectable signal | no significant association and dissociation phenomena | no detectable signal | no significant association and dissociation phenomena | –
3 | OC[C@H]1OC(O)[C@@H](O)[C@@H](O)[C@@H]1O (stereo partly drawn) [D-Mannose, D-mannose] | – | – | – | – | – | – | – | – | 71.7 | – | – | – | – | – | – | did not stabilize LecA at all
